Data set [1] addresses Glucagon-like peptide 1 receptor (Homo sapiens, UniProt P43220). Nature of the data set: Agonist activity human GLP-1R stably expressed in CHO-K1 cells assessed as […] in cAMP accumulation incubated for 30 mins by TR-FRET assay. Type of data set: functional, cell-based. (Cyclic AMP is a second messenger, typically raised through Gs and lowered through Gi signalling.)

The nature of data set [2]: Chemical stability of compound at pH 7 assessed as compound degradation. The following applies: buffer. Type of data set: physicochemical.
Data set [3] can be described thus: Chemical stability of compound at pH 8 assessed as compound degradation. The following applies: buffer; for degraded: read-out: Drug degradation. Type of data set: physicochemical.
In a further data set the target is Secretin receptor (Homo sapiens, UniProt P47872). Nature of the data set: Agonist activity human SCTR stably expressed in CHO-K1 cells assessed as […] in cAMP accumulation incubated for 30 mins by TR-FRET assay. Type of data set: functional, cell-based.
For a further data set, the species on record is Homo sapiens. Nature of the data set: Selectivity index, ratio of EC50 for agonist activity human SCTR stably expressed in CHO-K1 cells assessed as […] in cAMP accumulation to EC50 for agonist activity human GLP-1R stably expressed in CHO-K1 cells assessed as […] in cAMP accumulation. Type of data set: cell-based.
Data set [4] is described as follows: Toxicity in sc dosed C57BL/6JRj mouse model assessed as reduction in body weight administered once daily for 28 days. The following applies: in vivo, 672 h, dose 3-30 nmol/kg, time 28 day. Type of data set: organism-based.
Data set [5] in a line: Drug concentration in sc dosed C57BL/6JRj mouse plasma administered once daily for 28 days and measured after 24 hrs by LC-MS/MS analysis. The note with it: in vivo, 696 h, dose 3-30 nmol/kg, time 29 day. It is filed as ADME, organism-based.
For data set [6], the system named is Mus musculus. Briefly: Protection against diet-induced obesity in C57BL/6JRj mouse model assessed as reduction in whole-body adipose tissue mass at 3 to 30 nmol/kg administered once daily for 28 days. It is filed as functional, organism-based. The following applies: dose 3-30 nmol/kg, time 28.0 day.
Data set [7] deals with T1, Gastric inhibitory polypeptide receptor (Homo sapiens) (UniProt P48546).
T1 sequence (whole entry): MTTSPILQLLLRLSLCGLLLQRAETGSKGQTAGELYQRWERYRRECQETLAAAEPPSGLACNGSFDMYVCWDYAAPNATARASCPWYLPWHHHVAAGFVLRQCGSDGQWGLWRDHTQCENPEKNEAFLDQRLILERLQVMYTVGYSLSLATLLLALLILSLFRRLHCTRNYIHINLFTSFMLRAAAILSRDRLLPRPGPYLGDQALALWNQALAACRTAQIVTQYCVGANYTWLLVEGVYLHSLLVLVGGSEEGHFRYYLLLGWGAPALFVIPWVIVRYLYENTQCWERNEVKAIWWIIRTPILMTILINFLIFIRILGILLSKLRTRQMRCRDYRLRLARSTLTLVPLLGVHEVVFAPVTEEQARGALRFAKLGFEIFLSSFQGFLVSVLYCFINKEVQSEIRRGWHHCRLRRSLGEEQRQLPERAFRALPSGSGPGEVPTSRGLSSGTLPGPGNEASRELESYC
Briefly: Activation of GIPR (unknown origin) upto 3000 nM.

The target in data set [8] is Glucagon receptor (Homo sapiens) (UniProt P47871). Briefly: Activation of GCGR (unknown origin) upto 3000 nM.
The subject of data set [9] is Mus musculus. Briefly: Protection against diet-induced obesity in sc dosed C57BL/6JRj mouse model assessed as reduction in food intake administered once daily for 28 days and measured after 2 to 3 days. It is filed as functional, organism-based. The following applies: dose 3-30 nmol/kg, time 28-31 day.
The target of data set [10] is T2, Glucagon-like peptide 2 receptor (Homo sapiens) (UniProt O95838).
T2 sequence (whole entry): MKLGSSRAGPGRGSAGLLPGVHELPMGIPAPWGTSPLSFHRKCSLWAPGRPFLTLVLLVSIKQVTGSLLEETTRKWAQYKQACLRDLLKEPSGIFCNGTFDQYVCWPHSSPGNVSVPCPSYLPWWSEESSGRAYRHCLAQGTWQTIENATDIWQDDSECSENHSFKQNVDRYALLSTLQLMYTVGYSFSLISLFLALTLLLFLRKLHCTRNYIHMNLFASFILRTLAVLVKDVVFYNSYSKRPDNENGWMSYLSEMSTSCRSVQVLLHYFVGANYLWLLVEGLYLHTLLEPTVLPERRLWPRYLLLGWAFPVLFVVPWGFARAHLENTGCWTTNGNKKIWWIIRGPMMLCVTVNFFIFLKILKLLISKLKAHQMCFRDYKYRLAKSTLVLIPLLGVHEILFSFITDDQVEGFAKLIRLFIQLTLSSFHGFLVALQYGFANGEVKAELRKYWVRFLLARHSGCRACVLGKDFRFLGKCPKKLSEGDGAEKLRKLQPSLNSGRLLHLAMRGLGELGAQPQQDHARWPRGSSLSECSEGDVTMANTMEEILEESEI
Briefly: Activation of GLP-2R (unknown origin) upto 3000 nM.

The record followed here is ChEMBL document CHEMBL5523742 (J Med Chem, 2024).

Active and inactive are the calls of the source. The calls are words filed in the database; no cut-off is given here. Numbered stars: 1 amine (or outer) side, 2 acyl side, 3 side chain; on linkers, the order of the positions; unused ones are H or OH. Square brackets hold non-standard residues; d marks the D form. Side chains are listed from the residue outwards. Peptide text beside a SMILES is read from it. * marks the point of attachment. ξ: configuration not given here. C20 diacid = O=C(O)CCCCCCCCCCCCCCCCCCC(=O)*; γGlu = O=C(O)[C@H](CCC(=O)[*:2])N[*:1]; ξγGlu = O=C(O)C(CCC(=O)[*:2])N[*:1]; AEEA = NCCOCCOCC(=O)O; Aib = CC(C)(N)C(=O)O

The EC50 is the concentration at which the effect is half-maximal.

Chain of Secretin receptor (P47872 whole entry): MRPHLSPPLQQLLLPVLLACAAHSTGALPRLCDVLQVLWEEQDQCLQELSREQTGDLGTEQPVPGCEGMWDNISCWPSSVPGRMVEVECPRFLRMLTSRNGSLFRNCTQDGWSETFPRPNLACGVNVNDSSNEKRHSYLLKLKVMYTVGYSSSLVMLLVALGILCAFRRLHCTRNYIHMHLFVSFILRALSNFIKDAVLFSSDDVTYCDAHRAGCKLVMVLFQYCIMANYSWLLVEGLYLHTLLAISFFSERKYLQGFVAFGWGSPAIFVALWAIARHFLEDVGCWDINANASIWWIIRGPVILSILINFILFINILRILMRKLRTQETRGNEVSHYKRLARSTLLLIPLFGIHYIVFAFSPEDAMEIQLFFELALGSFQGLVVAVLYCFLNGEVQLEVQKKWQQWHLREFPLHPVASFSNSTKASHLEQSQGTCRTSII
Chain of Glucagon-like peptide 1 receptor (P43220 whole entry): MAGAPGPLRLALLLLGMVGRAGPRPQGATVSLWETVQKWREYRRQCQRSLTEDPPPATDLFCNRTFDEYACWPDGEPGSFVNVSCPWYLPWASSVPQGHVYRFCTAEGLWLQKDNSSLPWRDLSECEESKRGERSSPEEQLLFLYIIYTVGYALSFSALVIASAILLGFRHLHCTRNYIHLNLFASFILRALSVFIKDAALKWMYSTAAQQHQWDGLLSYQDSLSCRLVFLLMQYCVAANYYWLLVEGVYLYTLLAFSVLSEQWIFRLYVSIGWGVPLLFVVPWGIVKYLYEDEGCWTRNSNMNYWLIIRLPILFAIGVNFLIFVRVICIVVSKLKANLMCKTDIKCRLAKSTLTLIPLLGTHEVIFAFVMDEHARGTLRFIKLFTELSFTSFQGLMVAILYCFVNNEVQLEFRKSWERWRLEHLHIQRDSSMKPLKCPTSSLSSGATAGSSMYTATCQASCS
Chain of Glucagon receptor (Homo sapiens) (P47871 whole entry): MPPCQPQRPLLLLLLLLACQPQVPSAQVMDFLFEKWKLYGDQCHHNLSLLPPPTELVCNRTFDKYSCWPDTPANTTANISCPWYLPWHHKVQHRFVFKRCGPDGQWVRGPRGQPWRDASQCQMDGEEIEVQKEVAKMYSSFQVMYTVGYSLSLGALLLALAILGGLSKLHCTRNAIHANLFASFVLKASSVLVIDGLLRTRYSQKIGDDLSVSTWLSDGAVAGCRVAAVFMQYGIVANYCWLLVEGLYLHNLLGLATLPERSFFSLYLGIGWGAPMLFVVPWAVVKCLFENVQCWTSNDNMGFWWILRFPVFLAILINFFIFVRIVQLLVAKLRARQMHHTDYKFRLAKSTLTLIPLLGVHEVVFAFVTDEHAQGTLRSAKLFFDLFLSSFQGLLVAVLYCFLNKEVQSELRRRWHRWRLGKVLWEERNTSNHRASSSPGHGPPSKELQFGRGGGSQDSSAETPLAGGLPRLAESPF

Regarding SECRETIN [listing 1 of 2 here], the EC50 amounted to 2300 nM in data set [1] and 0.002 nM on Secretin receptor (cho-k1). Also, the values for the Drug degradation in [2] and in data set [3] were 8.6% and 9%, respectively.
For SECRETIN [listing 2 of 2 here], the Ratio EC50 in the data set listed under Homo sapiens is 1 10^-6No_unit.
On to `CC(C)C[C@H](NC(=O)[C@H](Cc1ccccc1)NC(=O)[C@H](CCCNC(=N)N)NC(=O)[C@H](CCC(N)=O)NC(=O)[C@H](CC(C)C)NC(=O)C(C)(C)NC(=O)[C@H](C)NC(=O)[C@H](CCC(=O)O)NC(=O)[C@H](CCC(=O)O)NC(=O)[C@H](CCCCNC(=O)COCCOCCNC(=O)COCCOCCNC(=O)CC[C@H](NC(=O)CCCCCCCCCCCCCCCCCCC(=O)O)C(=O)O)NC(=O)[C@H](CC(C)C)NC(=O)[C@H](Cc1ccc(O)cc1)NC(=O)[C@H](CO)NC(=O)[C@@H](NC(=O)[C@H](CC(=O)O)NC(=O)[C@H](CO)NC(=O)[C@@H](NC(=O)[C@H](Cc1ccccc1)NC(=O)[C@@H](NC(=O)CNC(=O)[C@H](CCC(=O)O)NC(=O)C(C)(C)NC(=O)[C@@H](N)Cc1c[nH]cn1)[C@@H](C)O)[C@@H](C)O)C(C)C)C(=O)N[C@@H](CCC(=O)O)C(=O)N[C@@H](Cc1c[nH]cn1)C(=O)N[C@@H](CC(C)C)C(=O)N[C@H](C(N)=O)C(C)C` (H-H[Aib]EGTFTSDVSYLK([AEEA-AEEA-γGlu-C20 diacid])EEA[Aib]LQRFLEHLV-NH2), for which the degraded in data set [2] (read-out: Drug degradation) was 1.4%; in data set [3], 0.55%. Moreover, in [4], the Activity result is on record as “Dose-Dependent Effect”. In addition, in data set [5], the Cp entry is reported as “Dose-Dependent Effect”.
With `CC(C)C[C@H](NC(=O)[C@H](Cc1ccccc1)NC(=O)[C@H](CCCNC(=N)N)NC(=O)[C@H](CCC(N)=O)NC(=O)[C@H](CC(C)C)NC(=O)C(C)(C)NC(=O)[C@H](C)NC(=O)[C@H](CCC(=O)O)NC(=O)[C@H](CCC(=O)O)NC(=O)[C@H](CCCCNC(=O)COCCOCCNC(=O)COCCOCCNC(=O)CCC(NC(=O)CCCCCCCCCCCCCCCCCCC(=O)O)C(=O)O)NC(=O)[C@H](CC(C)C)NC(=O)[C@H](Cc1ccc(O)cc1)NC(=O)[C@H](CO)NC(=O)[C@@H](NC(=O)[C@H](CC(=O)O)NC(=O)[C@H](CO)NC(=O)[C@@H](NC(=O)[C@H](Cc1ccccc1)NC(=O)[C@@H](NC(=O)CNC(=O)[C@H](CCC(=O)O)NC(=O)C(C)(C)NC(=O)[C@@H](N)Cc1c[nH]cn1)[C@@H](C)O)[C@@H](C)O)C(C)C)C(=O)N[C@@H](CCC(=O)O)C(=O)N[C@@H](Cc1c[nH]cn1)C(=O)N[C@@H](CC(C)C)C(=O)N[C@H](C(N)=O)C(C)C` (some centres not stated) (H-H[Aib]EGTFTSDVSYLK([AEEA-AEEA-ξγGlu-C20 diacid])EEA[Aib]LQRFLEHLV-NH2), the result in the data set with Mus musculus [6] was Active. Moreover, the Ratio EC50 in the data set listed under Homo sapiens is 10600. Further, the result in data set [7], in data set [8] and in data set [10] was inactive. For the same compound, in the data set on Mus musculus [9], the Activity entry is “Dose-Dependent Effect”.
As to `CC[C@H](C)[C@H](NC(=O)[C@H](Cc1ccccc1)NC(=O)[C@H](CCC(=O)O)NC(=O)[C@H](CCCCN)NC(=O)[C@H](C)NC(=O)[C@H](C)NC(=O)[C@H](CCC(N)=O)NC(=O)CNC(=O)[C@H](CCC(=O)O)NC(=O)[C@H](CC(C)C)NC(=O)[C@H](Cc1ccc(O)cc1)NC(=O)[C@H](CO)NC(=O)[C@H](CO)NC(=O)[C@@H](NC(=O)[C@H](CC(=O)O)NC(=O)[C@H](CO)NC(=O)[C@@H](NC(=O)[C@H](Cc1ccccc1)NC(=O)[C@@H](NC(=O)CNC(=O)[C@H](CCC(=O)O)NC(=O)[C@H](C)NC(=O)[C@@H](N)Cc1c[nH]cn1)[C@H](C)O)[C@@H](C)O)C(C)C)C(=O)N[C@@H](C)C(=O)N[C@@H](Cc1c[nH]c2ccccc12)C(=O)N[C@@H](CC(C)C)C(=O)N[C@H](C(=O)N[C@@H](CCCCN)C(=O)NCC(=O)N[C@@H](CCCNC(=N)N)C(=O)O)C(C)C`, the degraded in data set [3] worked out at 8.1%. The EC50 at Secretin receptor is 800 nM.
